The source of these data is US10660877B2 (BRISTOL-MYERS SQUIBB COMPANY, priority 2016, dated 2020).

For one assay, the target named is human TLR8 (Homo sapiens (Human), UniProt Q9NR97). Put plainly: TLR8 inhibition reporter assay (HEK-Blue cells, SEAP reporter, R848 stimulation).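 Further: compounds tested from 0.05 nM to 50 µM, 22 h at 37 °C, SEAP measured with HEK-Blue Detection, inhibition relative to agonist plus DMSO versus a known inhibitor.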
The next assay deals with human TLR7 (Homo sapiens (Human), UniProt Q9NYK1). Put plainly: TLR7 inhibition reporter assay (HEK-Blue cells, SEAP reporter, gardiquimod stimulation). Format: cell-based. To be noted: HEK-Blue cells overexpressing human TLR7, gardiquimod 7.5 μM.
human TLR7, sequence (Q9NYK1 27-1049): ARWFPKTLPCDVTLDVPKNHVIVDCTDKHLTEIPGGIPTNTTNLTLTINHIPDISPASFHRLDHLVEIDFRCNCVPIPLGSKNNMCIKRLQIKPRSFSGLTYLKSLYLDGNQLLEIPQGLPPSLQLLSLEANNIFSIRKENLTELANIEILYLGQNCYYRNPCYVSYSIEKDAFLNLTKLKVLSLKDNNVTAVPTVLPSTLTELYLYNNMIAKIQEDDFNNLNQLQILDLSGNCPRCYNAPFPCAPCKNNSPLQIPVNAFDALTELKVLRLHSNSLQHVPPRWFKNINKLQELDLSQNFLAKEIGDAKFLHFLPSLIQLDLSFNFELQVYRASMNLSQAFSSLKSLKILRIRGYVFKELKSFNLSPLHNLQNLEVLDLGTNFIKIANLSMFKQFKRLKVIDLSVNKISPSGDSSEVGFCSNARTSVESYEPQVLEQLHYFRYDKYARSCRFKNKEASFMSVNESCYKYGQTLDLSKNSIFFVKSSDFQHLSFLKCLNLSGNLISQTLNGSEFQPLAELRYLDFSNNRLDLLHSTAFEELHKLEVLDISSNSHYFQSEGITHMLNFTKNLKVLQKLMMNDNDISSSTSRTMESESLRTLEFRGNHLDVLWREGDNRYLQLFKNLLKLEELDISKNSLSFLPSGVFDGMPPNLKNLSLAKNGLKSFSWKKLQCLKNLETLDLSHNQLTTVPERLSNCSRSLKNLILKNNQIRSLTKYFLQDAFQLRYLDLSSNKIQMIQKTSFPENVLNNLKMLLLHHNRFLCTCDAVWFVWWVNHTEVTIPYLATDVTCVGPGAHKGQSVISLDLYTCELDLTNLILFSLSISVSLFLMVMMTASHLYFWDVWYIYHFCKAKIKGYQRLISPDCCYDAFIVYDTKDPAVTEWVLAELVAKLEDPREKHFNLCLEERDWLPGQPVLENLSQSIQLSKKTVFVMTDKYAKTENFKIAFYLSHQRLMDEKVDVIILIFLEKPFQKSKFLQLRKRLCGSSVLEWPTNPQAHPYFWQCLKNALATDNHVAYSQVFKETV
For a further assay, the target named is human TLR9 (Homo sapiens (Human), UniProt Q9NR96). Put plainly: TLR9 inhibition reporter assay (HEK-Blue cells, SEAP reporter, ODN2006 stimulation).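 Further: compounds tested over 0.05 nM to 50 µM, 22 h incubation, inhibition taken as SEAP signal drop from agonist plus DMSO wells toward a known inhibitor control.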
human TLR9, sequence (Q9NR96 26-1032): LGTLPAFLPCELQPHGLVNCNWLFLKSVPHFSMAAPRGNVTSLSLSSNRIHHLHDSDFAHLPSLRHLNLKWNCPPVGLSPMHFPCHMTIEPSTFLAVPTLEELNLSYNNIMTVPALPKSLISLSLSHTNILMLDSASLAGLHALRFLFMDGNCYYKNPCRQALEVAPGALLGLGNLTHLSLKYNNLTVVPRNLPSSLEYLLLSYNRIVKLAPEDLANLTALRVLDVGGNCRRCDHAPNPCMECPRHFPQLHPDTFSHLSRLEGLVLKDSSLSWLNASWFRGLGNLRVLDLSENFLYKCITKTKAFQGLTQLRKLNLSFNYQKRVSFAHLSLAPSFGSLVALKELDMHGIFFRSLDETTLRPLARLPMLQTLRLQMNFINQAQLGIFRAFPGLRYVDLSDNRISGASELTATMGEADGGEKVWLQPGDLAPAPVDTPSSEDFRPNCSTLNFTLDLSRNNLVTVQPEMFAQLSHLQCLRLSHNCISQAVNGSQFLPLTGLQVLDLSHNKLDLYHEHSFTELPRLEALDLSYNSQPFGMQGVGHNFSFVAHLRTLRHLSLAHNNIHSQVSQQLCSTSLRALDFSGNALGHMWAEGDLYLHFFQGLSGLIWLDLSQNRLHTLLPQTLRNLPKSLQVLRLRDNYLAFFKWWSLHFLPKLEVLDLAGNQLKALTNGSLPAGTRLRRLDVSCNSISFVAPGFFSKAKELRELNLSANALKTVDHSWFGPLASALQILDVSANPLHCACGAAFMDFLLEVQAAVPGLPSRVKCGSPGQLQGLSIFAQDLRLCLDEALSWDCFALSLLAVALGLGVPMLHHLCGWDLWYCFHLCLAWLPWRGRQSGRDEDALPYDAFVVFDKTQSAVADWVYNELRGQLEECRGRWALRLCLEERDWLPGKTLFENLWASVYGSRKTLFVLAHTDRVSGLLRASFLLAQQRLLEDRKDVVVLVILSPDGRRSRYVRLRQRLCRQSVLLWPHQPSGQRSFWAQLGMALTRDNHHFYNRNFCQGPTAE
Setting [1] is: read-out: TLR8 IC50, HEK-Blue cells overexpressing human TLR8, R848 15.9 μM.
Setting [2] is: read-out: TLR9 IC50, HEK-Blue cells overexpressing human TLR9, ODN2006 5 nM.

SMILES strings stand for the structures. Where two headings read alike, the source gives them in different places.

human TLR8, sequence (Q9NR97 27-1041): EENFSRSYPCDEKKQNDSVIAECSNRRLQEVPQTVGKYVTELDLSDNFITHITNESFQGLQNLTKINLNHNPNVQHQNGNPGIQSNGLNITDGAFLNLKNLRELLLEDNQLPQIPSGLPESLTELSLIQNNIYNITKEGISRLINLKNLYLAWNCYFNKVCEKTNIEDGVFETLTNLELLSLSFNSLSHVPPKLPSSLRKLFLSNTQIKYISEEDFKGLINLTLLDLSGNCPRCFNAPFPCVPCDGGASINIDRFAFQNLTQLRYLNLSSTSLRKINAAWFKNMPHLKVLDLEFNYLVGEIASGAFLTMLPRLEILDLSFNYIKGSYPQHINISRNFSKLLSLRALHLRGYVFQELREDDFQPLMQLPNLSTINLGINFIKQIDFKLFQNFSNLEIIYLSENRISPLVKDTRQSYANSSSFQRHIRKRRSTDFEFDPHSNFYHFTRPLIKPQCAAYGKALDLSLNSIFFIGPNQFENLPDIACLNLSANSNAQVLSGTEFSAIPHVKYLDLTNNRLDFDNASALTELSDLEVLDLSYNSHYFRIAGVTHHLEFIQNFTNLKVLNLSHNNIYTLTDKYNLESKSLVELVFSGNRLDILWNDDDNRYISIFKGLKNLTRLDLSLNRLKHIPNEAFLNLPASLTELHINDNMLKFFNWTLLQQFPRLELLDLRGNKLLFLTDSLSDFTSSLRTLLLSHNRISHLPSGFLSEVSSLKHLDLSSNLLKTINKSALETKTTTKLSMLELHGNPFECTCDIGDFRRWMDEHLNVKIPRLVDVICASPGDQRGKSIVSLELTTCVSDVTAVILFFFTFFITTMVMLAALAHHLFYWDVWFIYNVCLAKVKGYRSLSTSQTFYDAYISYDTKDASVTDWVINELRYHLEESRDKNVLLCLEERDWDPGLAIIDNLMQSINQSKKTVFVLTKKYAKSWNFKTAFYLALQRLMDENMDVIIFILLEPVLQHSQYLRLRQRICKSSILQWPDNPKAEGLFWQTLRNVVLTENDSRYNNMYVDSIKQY

Turning to `Cc1cc(-c2[nH]c3ccc(C4CCN(C(=O)CN5C[C@@H](O)CC5=O)CC4)cc3c2C(C)C)cc(C)n1` [Example 169, (S)-1-(2-(4-(2-(2,6-dimethylpyridin-4-yl)-3-isopropyl-1H-indol-5-yl)piperidin-1-yl)-2-oxoethyl)-4-hydroxypyrrolidin-2-one], the IC50 was 73.7 nM at human TLR8 (setting [1]), 11.7 nM against human TLR7 and greater than 50000 nM on human TLR9 (setting [2]).

On to `Cc1cc(-c2[nH]c3ccc(C4CCN(C(=O)Cn5cncn5)CC4)cc3c2C(C)C)cc(C)n1` [Example 170, 1-(4-(2-(2,6-dimethylpyridin-4-yl)-3-isopropyl-1H-indol-5-yl)piperidin-1-yl)-2-(1H-1,2,4-triazol-1-yl)ethan-1-one], for which the IC50 was 206 nM on human TLR8 (setting [1]), 12.1 nM on human TLR7 and greater than 50000 nM on human TLR9 (setting [2]).

Consider `Cc1cc(-c2[nH]c3ccc(C4CCN(C(=O)CN5CCN(CCO)CC5)CC4)cc3c2C(C)C)cc(C)n1` [Example 171, 1-(4-(2-(2,6-dimethylpyridin-4-yl)-3-isopropyl-1H-indol-5-yl)piperidin-1-yl)-2-(4-(2-hydroxyethyl)piperazin-1-yl)ethan-1-one], for which the IC50 at human TLR8 (setting [1]) turned out to be 18.3 nM; against human TLR7, 2.6 nM; at human TLR9 (setting [2]) it was 542 nM.

Regarding `Cc1cc(-c2[nH]c3ccc(C4CCN(C(=O)C5(N(C)C)CC5)CC4)cc3c2C(C)C)cc(C)n1` [Example 172, (1-(dimethylamino)cyclopropyl)(4-(2-(2,6-dimethylpyridin-4-yl)-3-isopropyl-1H-indol-5-yl)piperidin-1-yl)methanone], the IC50 at human TLR8 (setting [1]) came to 101 nM; on human TLR7, 7.9 nM; on human TLR9 (setting [2]) it was 5100 nM.

On to `Cc1cc(-c2[nH]c3ccc(C4CCN(C(=O)C(C)(C)O)CC4)cc3c2C(C)C)cc(C)n1` [Example 173, 1-(4-(2-(2,6-dimethylpyridin-4-yl)-3-isopropyl-1H-indol-5-yl)piperidin-1-yl)-2-hydroxy-2-methylpropan-1-one], for which the values for the IC50 at human TLR8 (setting [1]), against human TLR7 and at human TLR9 (setting [2]) were 88.3 nM, 6.2 nM and 43300 nM, respectively.

For `CC(=O)N1CCC(c2ccc3[nH]c(-c4cc(C)nc(C)c4)c(C(C)C)c3c2)CC1` [Example 174, 1-(4-(2-(2,6-dimethylpyridin-4-yl)-3-isopropyl-1H-indol-5-yl)piperidin-1-yl)ethan-1-one], the results for the IC50 on human TLR8 (setting [1]), at human TLR7 and at human TLR9 (setting [2]) were 81.1 nM, 5.5 nM and 35100 nM, respectively.

In the case of `Cc1cc(-c2[nH]c3ccc(C4CCN(C(=O)CCN(C)CCO)CC4)cc3c2C(C)C)cc(C)n1` [Example 175, 1-(4-(2-(2,6-dimethylpyridin-4-yl)-3-isopropyl-1H-indol-5-yl)piperidin-1-yl)-3-((2-hydroxyethyl)(methyl)amino)propan-1-one], the results for the IC50 on human TLR8 (setting [1]), at human TLR7 and at human TLR9 (setting [2]) were 7.1 nM, 1.5 nM and 213 nM, respectively.

For the compound `Cc1cc(-c2[nH]c3ccc(C4CCN(C(=O)C5(C)CCN(C)CC5)CC4)cc3c2C(C)C)cc(C)n1` [Example 176, (1,4-dimethylpiperidin-4-yl)(4-(2-(2,6-dimethylpyridin-4-yl)-3-isopropyl-1H-indol-5-yl)piperidin-1-yl)methanone], the values for the IC50 at human TLR8 (setting [1]), on human TLR7 and at human TLR9 (setting [2]) were 21.7 nM, 11.1 nM and 663 nM, respectively.

As for `Cc1cc(-c2[nH]c3ccc(C4CCN(C(=O)C5(C)CCN(C(C)C)CC5)CC4)cc3c2C(C)C)cc(C)n1` [Example 177, (4-(2-(2,6-dimethylpyridin-4-yl)-3-isopropyl-1H-indol-5-yl)piperidin-1-yl)(1-isopropyl-4-methylpiperidin-4-yl)methanone], the IC50 is 67.2 nM at human TLR8 (setting [1]), 13.1 nM at human TLR7 and 937 nM on human TLR9 (setting [2]).

In the case of `Cc1cc(-c2[nH]c3ccc(C4CCN(C(=O)C5CCNCC5)CC4)cc3c2C(C)C)cc(C)n1` [Example 178, (4-(2-(2,6-dimethylpyridin-4-yl)-3-isopropyl-1H-indol-5-yl)piperidin-1-yl)(piperidin-4-yl)methanone], the IC50 came to 27.3 nM at human TLR8 (setting [1]), 5.4 nM on human TLR7 and 549 nM at human TLR9 (setting [2]).

Consider `CNCCC(=O)N1CCC(c2ccc3[nH]c(-c4cc(C)nc(C)c4)c(C(C)C)c3c2)CC1` [Example 183, 1-(4-(2-(2,6-dimethylpyridin-4-yl)-3-isopropyl-1H-indol-5-yl)piperidin-1-yl)-3-(methylamino)propan-1-one], for which the IC50 worked out at 19.7 nM at human TLR8 (TLR8 IC50, HEK-Blue cells overexpressing human TLR8, R848 15.9 μM); 0.9 nM on human TLR7; 323 nM on human TLR9 (TLR9 IC50, HEK-Blue cells overexpressing human TLR9, ODN2006 5 nM).

Turning to `CNC(C)(C)C(=O)N1CCC(c2ccc3[nH]c(-c4cc(C)nc(C)c4)c(C(C)C)c3c2)CC1` [Example 187, 1-(4-(2-(2,6-dimethylpyridin-4-yl)-3-isopropyl-1H-indol-5-yl)piperidin-1-yl)-2-methyl-2-(methylamino)propan-1-one], the results for the IC50 at human TLR8 (setting [1]), against human TLR7 and on human TLR9 (setting [2]) were 10.5 nM, 1.7 nM and 971 nM, respectively.

For the compound `Cc1cc(-c2[nH]c3ccc(C4CCN(C(=O)CN5CC[C@H](N)C5=O)CC4)cc3c2C(C)C)cc(C)n1` [Example 188, (S)-3-amino-1-(2-(4-(2-(2,6-dimethylpyridin-4-yl)-3-isopropyl-1H-indol-5-yl)piperidin-1-yl)-2-oxoethyl)pyrrolidin-2-one], the results for the IC50 on human TLR8 (setting [1]), on human TLR7 and on human TLR9 (setting [2]) were 12.8 nM, 2.1 nM and 972 nM, respectively.

Consider `Cc1cc(-c2[nH]c3ccc(C4CCN(C(=O)[C@@H]5CC(F)(F)CN5)CC4)cc3c2C(C)C)cc(C)n1` [Example 189, (S)-(4,4-difluoropyrrolidin-2-yl)(4-(2-(2,6-dimethylpyridin-4-yl)-3-isopropyl-1H-indol-5-yl)piperidin-1-yl) methanone], for which the IC50 came to 74.3 nM at human TLR8 (setting [1]), 7 nM at human TLR7 and 15100 nM at human TLR9 (setting [2]).

As to `Cc1cc(-c2[nH]c3ccc(C4CCN(C(=O)[C@@H]5C[C@@H](F)CN5)CC4)cc3c2C(C)C)cc(C)n1` [Example 190, (4-(2-(2,6-dimethylpyridin-4-yl)-3-isopropyl-1H-indol-5-yl)piperidin-1-yl)((2S,4R)-4-fluoropyrrolidin-2-yl)methanone], the IC50 on human TLR8 (setting [1]) stood at 9.6 nM; on human TLR7 it was 1.6 nM; at human TLR9 (setting [2]), 281 nM.

On to `CN[C@@H](C)C(=O)N1CCC(c2ccc3[nH]c(-c4cc(C)nc(C)c4)c(C(C)C)c3c2)CC1` [Example 191, (S)-1-(4-(2-(2,6-dimethylpyridin-4-yl)-3-isopropyl-1H-indol-5-yl)piperidin-1-yl)-2-(methylamino)propan-1-one], for which the IC50 at human TLR8 (setting [1]) came to 14.4 nM; against human TLR7, 3.5 nM; at human TLR9 (setting [2]), 317 nM.

In the case of `Cc1cc(-c2[nH]c3ccc(C4CCN(C(=O)C(C)(C)N)CC4)cc3c2C(C)C)cc(C)n1` [Example 194, 2-amino-1-(4-(2-(2,6-dimethylpyridin-4-yl)-3-isopropyl-1H-indol-5-yl)piperidin-1-yl)-2-methylpropan-1-one], the values for the IC50 on human TLR8 (setting [1]), at human TLR7 and on human TLR9 (setting [2]) were 9.3 nM, 0.6 nM and 213 nM, respectively.

Consider `Cc1cc(-c2[nH]c3ccc(C4CCN(C(=O)C5(N)CC5)CC4)cc3c2C(C)C)cc(C)n1` [Example 195, (1-aminocyclopropyl)(4-(2-(2,6-dimethylpyridin-4-yl)-3-isopropyl-1H-indol-5-yl)piperidin-1-yl)methanone], for which the IC50 is 54 nM at human TLR8 (setting [1]), 6 nM against human TLR7 and 5270 nM at human TLR9 (setting [2]).
